In patent publication US12030897B2, “Pyrrolo[2,1-f][1,2,4]triazine derivatives serving as selective HER2 inhibitors and application thereof” (MEDSHINE DISCOVERY INC., priority 2018, dated 2024):
Where “and” joins values, the source holds several entries; their conditions need not be identical. Equal entries are not always repeated.

Legend:
HER4 (ErbB4) = HER4 (ErbB4) (Homo sapiens (Human), UniProt Q15303); test: In vitro enzyme activity, HER4 (ErbB4), [γ-33P]ATP filter assay; assay type: biochemical
Sequence of HER4 (ErbB4) (Q15303 26-1308): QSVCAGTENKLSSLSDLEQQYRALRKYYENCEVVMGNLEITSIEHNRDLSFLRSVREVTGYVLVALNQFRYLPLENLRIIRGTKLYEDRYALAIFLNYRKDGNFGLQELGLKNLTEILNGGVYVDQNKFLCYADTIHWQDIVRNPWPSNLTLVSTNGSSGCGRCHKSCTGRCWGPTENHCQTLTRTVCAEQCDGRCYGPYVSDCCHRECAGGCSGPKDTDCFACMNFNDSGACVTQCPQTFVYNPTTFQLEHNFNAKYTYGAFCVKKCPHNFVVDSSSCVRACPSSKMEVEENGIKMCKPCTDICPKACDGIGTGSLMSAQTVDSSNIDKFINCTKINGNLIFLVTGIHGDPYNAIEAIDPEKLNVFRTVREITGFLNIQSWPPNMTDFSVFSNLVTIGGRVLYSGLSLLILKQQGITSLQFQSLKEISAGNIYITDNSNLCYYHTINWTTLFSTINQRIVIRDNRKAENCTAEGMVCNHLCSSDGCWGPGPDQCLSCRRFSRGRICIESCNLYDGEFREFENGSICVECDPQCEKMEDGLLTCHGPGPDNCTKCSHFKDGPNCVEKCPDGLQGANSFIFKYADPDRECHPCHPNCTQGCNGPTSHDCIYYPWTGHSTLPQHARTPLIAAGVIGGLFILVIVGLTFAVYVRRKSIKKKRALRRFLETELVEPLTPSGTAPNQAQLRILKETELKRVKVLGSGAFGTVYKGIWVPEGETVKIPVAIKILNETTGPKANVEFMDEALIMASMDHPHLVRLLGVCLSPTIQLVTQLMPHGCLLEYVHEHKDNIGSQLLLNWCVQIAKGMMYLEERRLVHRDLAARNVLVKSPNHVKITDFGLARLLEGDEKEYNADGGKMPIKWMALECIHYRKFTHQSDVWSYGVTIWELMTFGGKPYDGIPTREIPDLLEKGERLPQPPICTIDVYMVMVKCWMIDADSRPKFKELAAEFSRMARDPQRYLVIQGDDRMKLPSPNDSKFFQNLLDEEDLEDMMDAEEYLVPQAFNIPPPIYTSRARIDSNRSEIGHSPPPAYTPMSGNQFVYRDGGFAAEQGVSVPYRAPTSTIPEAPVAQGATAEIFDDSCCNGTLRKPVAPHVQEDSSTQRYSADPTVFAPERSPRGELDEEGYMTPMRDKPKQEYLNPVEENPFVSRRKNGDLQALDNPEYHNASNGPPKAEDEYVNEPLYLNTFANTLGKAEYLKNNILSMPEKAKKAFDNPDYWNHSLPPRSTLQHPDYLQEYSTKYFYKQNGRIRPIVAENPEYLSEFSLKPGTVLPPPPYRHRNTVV
Procedure: (§1) The object of this test is to detect the in vitro inhibitory activity of the compound against HER1 (ErbB1), HER2 (ErbB2) and HER4 (ErbB4). The enzymes used in this test were human ErbB1, ErbB2 and ErbB4. Eurofins Pharma Discovery Service provided the activity detection method, and the results of the inhibitory activity of the tested compound against HER1, HER2 and HER4 were shown in Table 1.
(§2) Experimental Steps and Methods (96-Well Plate):
(§3) 5-fold diluted tested compound buffer (5 μL), peptide substrate poly(Glu, Tyr) (4:1) (2.5 μL), ErbB (4-20 ng, 2.5 μL), MnCl2 (50 mM, 1.25 μL), dH2O (3.75 μL) and [γ-^33P]ATP (10 μL) were added, and incubated at 30° C. for 10 min. 3% phosphoric acid was added to terminate the reaction, and 10 μL of the specimen was transferred to Filtermate A. The filter was washed with 75 mM phosphoric acid for three times and methanol once, and transferred to a sealed plastic bag, and a scintillation fluid mixture (4 mL) was added, The intensity of the emitted photons was detected on the scintillation luminescence counter. The photon intensity of the enzyme sample was compared with the photon intensity of the internal control sample, and the level of photon intensity reflected the strength of the tyrosine kinase activity.

NCI-N87 cell = test: Cell proliferation inhibitory activity, Cell-Titer-Glo, NCI-N87; assay type: cell-based, human; conditions: 3 days incubation
Excerpt: (§4) Experiment object: to detect the inhibitory activity of the tested compound on cell proliferation.
(§5) Experimental principle: the luciferase in the Cell-Titer-Glo reagent uses luciferin, oxygen and ATP as reaction substrates to produce oxyluciferin and release energy in the form of light. Since the luciferase reaction requires ATP, the total amount of light produced by the reaction is proportional to the total amount of ATP that reflects cell viability.
(§6) Experimental Materials: • cell lines: NCI-N87 cell line (ATCC-CRL-5822); BT-474 cell line (ATCC-HTB-20) • Cell culture medium: RPMI 1640 medium (Invitrogen #22400-105; 10% serum Invitrogen #10090148; L-glutamine 1×, Gibco #25030-081; double antibody Hyclone #SV30010) • CellTiter-Glo® luminescence cell viability detection kit (Promega #G7573) • 384-well cell culture plate (Greiner #781090) • Compound plate (LABCYTE #LP-0200) • CO2 incubator (Thermo #371) • Vi-cell cell counter (Beckman Coulter) • Pipette (Eppendorf) • Pipette (Greiner) • Pipetting gun (Eppendorf) • Multifunctional microplate reader (Envision Reader) • ECHO Liquid-handling workstation (Labcyte-ECHO555)
(§7) The cells were inoculated in a 384-well plate with a density of 1000 cells per well and 25 μL per well. The edge wells were not inoculated with cells, and was supplemented with 25 μL of phosphate buffer.
(§8) The compound was added to the plate with 9 μL per well.
(§9) (2) The compound was diluted with ECHO liquid-handling workstation, and each well of the cell plate was added with 125 nL of compound. Each well of the cell wells of columns 2 and 23 was added with 125 nL of DMSO, and each well of the Media wells of columns 1 and 24 was added with 125 nL of DMSO.
(§10) (3) Each well of the cell plate was supplemented with 25 μL of culture medium, and the final volume in each well of the cell plate was 50 μL. The concentration of the compound was 10 μM, which was subjected to 3 fold dilution to obtain 10 concentrations. Each concentration was duplicated in left and right wells, and the final DMSO concentration was 0.25%.
(§11) 2.3 After adding the compound, it was centrifuged at 1000 rpm for 1 min. The cell plate was placed in a 37° C., 5% CO2 incubator for 3 days.
(§12) The cell plate was taken from the incubator and equilibrated at room temperature for 30 min. 25 μL of Cell-Titer-Glo reagent was added to each well, shaken for 1 min to make it thoroughly mixed, and centrifuged at 1000 rpm for 1 min. After 10 min, the plate was read on PerkinElmer Envision, and the […] reading time was set to 0.2 seconds.

HER1 (ErbB1) = HER1 (ErbB1) (Homo sapiens (Human), UniProt P00533); test: In vitro enzyme activity, HER1 (ErbB1), [γ-33P]ATP filter assay; assay type: biochemical
Sequence of HER1 (ErbB1) (P00533 25-1210): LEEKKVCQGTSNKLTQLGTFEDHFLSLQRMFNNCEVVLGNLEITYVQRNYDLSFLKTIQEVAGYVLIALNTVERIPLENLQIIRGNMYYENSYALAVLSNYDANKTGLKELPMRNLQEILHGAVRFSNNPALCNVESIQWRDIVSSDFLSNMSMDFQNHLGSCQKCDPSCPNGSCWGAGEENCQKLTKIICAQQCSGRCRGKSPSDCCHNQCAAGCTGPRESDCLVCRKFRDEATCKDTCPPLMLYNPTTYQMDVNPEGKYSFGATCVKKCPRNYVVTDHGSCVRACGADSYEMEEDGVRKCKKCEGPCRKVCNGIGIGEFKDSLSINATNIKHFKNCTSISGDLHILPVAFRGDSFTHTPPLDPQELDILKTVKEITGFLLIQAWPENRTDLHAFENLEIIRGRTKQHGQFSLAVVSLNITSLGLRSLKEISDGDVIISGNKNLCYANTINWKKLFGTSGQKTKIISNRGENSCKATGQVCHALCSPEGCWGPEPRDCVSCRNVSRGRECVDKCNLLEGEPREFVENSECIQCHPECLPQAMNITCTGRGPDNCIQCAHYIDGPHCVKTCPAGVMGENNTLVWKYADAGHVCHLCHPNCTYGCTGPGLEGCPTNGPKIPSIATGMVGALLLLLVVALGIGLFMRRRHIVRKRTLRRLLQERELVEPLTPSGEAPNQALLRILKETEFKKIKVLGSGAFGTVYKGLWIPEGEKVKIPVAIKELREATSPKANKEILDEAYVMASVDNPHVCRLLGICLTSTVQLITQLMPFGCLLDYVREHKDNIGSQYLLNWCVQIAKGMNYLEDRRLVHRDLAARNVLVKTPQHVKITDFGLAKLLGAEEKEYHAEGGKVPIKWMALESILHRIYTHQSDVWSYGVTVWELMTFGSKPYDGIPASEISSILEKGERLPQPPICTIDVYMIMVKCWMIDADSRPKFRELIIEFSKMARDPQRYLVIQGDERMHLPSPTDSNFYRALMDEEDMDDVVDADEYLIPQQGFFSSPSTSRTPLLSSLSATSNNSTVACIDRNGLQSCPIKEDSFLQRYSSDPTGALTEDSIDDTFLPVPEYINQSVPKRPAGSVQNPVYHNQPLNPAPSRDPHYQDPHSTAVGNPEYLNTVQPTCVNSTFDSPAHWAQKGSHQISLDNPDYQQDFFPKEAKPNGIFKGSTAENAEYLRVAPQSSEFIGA
Procedure: The object of this test is to detect the in vitro inhibitory activity of the compound against HER1 (ErbB1), HER2 (ErbB2) and HER4 (ErbB4). The enzymes used in this test were human ErbB1, ErbB2 and ErbB4.
as §2, §3

HER2 (ErbB2) = HER2 (ErbB2) (Homo sapiens (Human), UniProt P04626); test: In vitro enzyme activity, HER2 (ErbB2), [γ-33P]ATP filter assay; assay type: biochemical
Sequence of HER2 (ErbB2) (P04626 23-1255): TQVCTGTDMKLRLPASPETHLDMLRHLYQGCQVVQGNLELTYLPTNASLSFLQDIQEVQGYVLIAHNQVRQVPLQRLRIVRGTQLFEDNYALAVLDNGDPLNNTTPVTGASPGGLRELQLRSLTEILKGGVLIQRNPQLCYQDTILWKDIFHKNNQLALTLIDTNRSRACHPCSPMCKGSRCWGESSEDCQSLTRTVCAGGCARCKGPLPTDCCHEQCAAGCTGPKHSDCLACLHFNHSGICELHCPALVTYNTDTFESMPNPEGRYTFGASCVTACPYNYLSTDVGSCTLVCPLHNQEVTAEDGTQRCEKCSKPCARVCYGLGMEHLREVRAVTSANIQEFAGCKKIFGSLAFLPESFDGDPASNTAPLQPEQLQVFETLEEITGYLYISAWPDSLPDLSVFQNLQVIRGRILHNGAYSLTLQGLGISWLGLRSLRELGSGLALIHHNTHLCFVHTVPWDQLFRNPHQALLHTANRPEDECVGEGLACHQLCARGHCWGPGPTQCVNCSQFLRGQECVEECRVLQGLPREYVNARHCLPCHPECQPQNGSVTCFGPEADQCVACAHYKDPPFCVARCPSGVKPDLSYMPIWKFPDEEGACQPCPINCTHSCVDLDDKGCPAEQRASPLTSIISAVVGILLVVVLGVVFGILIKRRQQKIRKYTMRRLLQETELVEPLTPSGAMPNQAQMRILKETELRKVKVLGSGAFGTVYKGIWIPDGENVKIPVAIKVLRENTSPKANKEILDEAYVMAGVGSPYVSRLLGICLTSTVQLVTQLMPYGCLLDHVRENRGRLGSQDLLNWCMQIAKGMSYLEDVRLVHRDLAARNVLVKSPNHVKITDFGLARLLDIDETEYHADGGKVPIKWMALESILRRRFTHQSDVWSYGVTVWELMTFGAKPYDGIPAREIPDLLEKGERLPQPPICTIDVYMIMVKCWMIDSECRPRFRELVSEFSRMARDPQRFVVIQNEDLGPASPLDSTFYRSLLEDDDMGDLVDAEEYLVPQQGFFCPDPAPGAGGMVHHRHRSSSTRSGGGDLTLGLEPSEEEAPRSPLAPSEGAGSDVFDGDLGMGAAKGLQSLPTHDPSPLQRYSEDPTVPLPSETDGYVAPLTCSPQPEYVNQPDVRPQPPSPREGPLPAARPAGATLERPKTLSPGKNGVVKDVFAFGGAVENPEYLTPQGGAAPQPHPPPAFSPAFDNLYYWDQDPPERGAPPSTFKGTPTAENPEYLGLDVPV
Procedure: as §1, §2, §3

BT-474 cell = test: Cell proliferation inhibitory activity, Cell-Titer-Glo, BT-474; assay type: cell-based; conditions: Homo sapiens, BT-474, 72 h; 3 days incubation
Excerpt: as §4, §5, §6, §7, §8, §9, §10, §11, §12

[1] = test system: human breast cancer BT-474 cell subcutaneous xenograft tumor; test: In vivo efficacy, BT-474 subcutaneous xenograft tumor model; design: species or system BALB/c nude mice; conditions: BT-474 xenograft, 100 mg/kg
Procedure: Experiment object: to study the in vivo efficacy of the tested compound in human breast cancer BT-474 cell BALB/c nude mouse subcutaneous xenograft tumor model.
Experimental animals: female BALB/c nude mice, 6 to 8 weeks old, weight: 18 to 22 grams; Supplier Beijing Weitonglihua Laboratory Animal Technology Co., Ltd.
Human breast cancer BT474 cells were cultured in a monolayer in vitro. The culture conditions were: ATCC Hybri-Care Medium with 1.5 g/L sodium bicarbonate, 10% fetal bovine serum, 100 U/mL penicillin and 100 μg/mL streptomycin, and 37° C., 5% CO2 incubator. Conventional digestion treatment with pancreatin-EDTA for passage was carried out twice a week. When the cell saturation was 80% to 90%, and the number reached the requirement, the cells were collected, counted and inoculated.
0.2 mL (1×10^7 cells) of BT474 cells (with matrigel in a volume ratio of 1:1) were subcutaneously inoculated on the right back of each mouse. The grouping and administration were started when the average tumor volume reached about 168 mm^3. (Estrogen tablets were inoculated three days before cell inoculation).
7.3 the Preparation of the Tested Samples, Tumor Measurement, Experimental Index and Statistical Analysis were the Same as in Experimental Example 6.

Row | SMILES | IC50 (HER4 (ErbB4)) [µM] | IC50 (NCI-N87 cell) [µM] | IC50 (HER1 (ErbB1)) [µM] | IC50 (HER2 (ErbB2)) [µM] | IC50 (NCI-N87 cell; Homo sapiens, NCI-N87, 72 h) [µM] | IC50 (BT-474 cell) [µM] | RTV ([1]; day 20) | T/C ([1]; day 20) [%] | TGI ([1]; day 20) [%] | Tumor volume ([1]; day 20 (head: Day 21), mean ± SEM)
1 | Cc1cc(Nc2ncnn3ccc(CN4CC[C@H](N)[C@@H](F)C4)c23)ccc1Oc1ccn2ncnc2c1 [Example 21] | > 1 | 0.019 | 0.909 | 0.004 |  |  |  |  |  | 
2 | Cc1cc(Nc2ncnn3ccc(CN4CCCNCC4)c23)ccc1Oc1ccn2ncnc2c1 [Example 5] | > 1 |  | > 1 | 0.016 | 0.059 | 0.097 |  |  |  | 
3 | Cc1cc(Nc2ncnn3ccc(CN4[C@@H]5CC[C@H]4C[C@H](N)C5)c23)ccc1Oc1ccn2ncnc2c1 [Example 8] | 0.184 |  | 0.385 | 0.01 | 0.02 |  |  |  |  | 
4 | CCNC1CCN(Cc2ccn3ncnc(Nc4ccc(Oc5ccn6ncnc6c5)c(C)c4)c23)CC1 [Example 19] |  |  |  |  | 0.023 |  |  |  |  | 
5 | NC1CCN(Cc2ccn3ncnc(Nc4ccc(Oc5ccn6ncnc6c5)c(C(F)(F)F)c4)c23)CC1 [Example 30] | > 1 |  | 0.663 | 0.014 |  |  |  |  |  | 
6 | Cc1cc(Nc2ncnn3ccc(CN4CCC(C)(N)CC4)c23)ccc1Oc1ccn2ncnc2c1 [Example 9] | 0.201 |  | 0.325 | 0.011 | 0.008 |  |  |  |  | 
7 | CO[C@H]1CN(Cc2ccn3ncnc(Nc4ccc(Oc5ccn6ncnc6c5)c(C)c4)c23)CC[C@@H]1N [Example 25] | 0.369 | 0.014 | 0.207 | 0.002 |  |  |  |  |  | 
8 | Cc1cc(Nc2ncnn3ccc(CN4[C@@H]5CC[C@H]4C[C@H](O)C5)c23)ccc1Oc1ccn2ncnc2c1 [Example 6] | 0.15 |  | 0.743 | 0.018 | 0.004 |  |  |  |  | 
9 | Cc1c(Oc2ccn3ncnc3c2)ccc(Nc2ncnn3ccc(CN4CCC(N)CC4)c23)c1F [Example 31] | > 1 |  | 0.667 | 0.003 | 0.031 |  |  |  |  | 
10 | Cc1cc(Nc2ncnn3ccc(CC4CCC(N)CC4)c23)ccc1Oc1ccn2ncnc2c1 (stereo not shown) [Example 29] |  |  |  |  | 0.027 |  |  |  |  | 
11 | Cc1cc(Nc2ncnn3ccc(CN4CC(O)C4)c23)ccc1Oc1ccn2ncnc2c1 [Example 12] |  |  |  |  | 0.052 |  |  |  |  | 
12 | NC1CCN(Cc2ccn3ncnc(Nc4ccc(Oc5ccn6ncnc6c5)c(Cl)c4F)c23)CC1 [Example 32] | 0.356 |  | 0.284 | 0.002 | 0.011 | 0.087 | 0.61 ± 0.06 | 7.84 | 106.44 | 101 mm^3 and 101 ± 12 mm^3
13 | COCCNC1CCN(Cc2ccn3ncnc(Nc4ccc(Oc5ccn6ncnc6c5)c(C)c4)c23)CC1 [Example 18] | > 1 |  | 0.509 | 0.004 | 0.065 |  |  |  |  | 
14 | Cc1cc(Nc2ncnn3ccc(CN4CCNCC4)c23)ccc1Oc1ccn2ncnc2c1 [Example 1] | > 1 |  | > 1 | 0.024 |  |  |  |  |  | 
15 | Cc1cc(Nc2ncnn3ccc(CN4C[C@H]5CC[C@@H](C4)[C@H]5N)c23)ccc1Oc1ccn2ncnc2c1 [Example 7] | > 1 |  |  | 0.01 | 0.027 |  |  |  |  | 
16 | Cc1cc(Nc2ncnn3ccc(CN4CCC(O)CC4)c23)ccc1Oc1ccn2ncnc2c1 [Example 16] | 0.535 |  | 0.861 | 0.007 | 0.038 |  |  |  |  | 
17 | Cc1cc(Nc2ncnn3ccc(CN4CC[C@H](N)[C@@H](F)C4)c23)ccc1Oc1ccn2ncnc2c1 [Example 23] | 0.041 | 0.003 | 0.061 | 0.002 |  |  |  |  |  | 
18 | COCC1(N)CCN(Cc2ccn3ncnc(Nc4ccc(Oc5ccn6ncnc6c5)c(C)c4)c23)CC1 [Example 20] | 0.23 |  | 0.167 | 0.007 | 0.009 | 0.088 |  |  |  | 
